In ChEMBL document CHEMBL4651402, “Screening of ~5500 FDA-approved drugs and clinical candidates for anti-SARS-CoV-2 activity” (2021):
Square brackets hold non-standard residues; d marks the D form. Peptide text beside a SMILES is read from it.

System: SARS-CoV-2
Experiment: microbe, parasite or virus in culture
Conditions: Severe acute respiratory syndrome coronavirus 2, Vero C1008, 48 h

Compound	IC50 [µM]	IC50 (read-out: pIC50 (converted)) [µM]
Nc1nc(=O)c2c([nH]1)NCC(CNc1ccc(C(=O)N[C@@H](CCC(=O)O)C(=O)O)cc1)N2C=O (some centres not stated) [LEUCOVORIN]	> 20	> 20
CCN(CC)Cc1cc(Nc2ccnc3cc(Cl)ccc23)ccc1O [AMODIAQUINE]	> 20	> 20
OC[C@H]1O[C@H](O)[C@@H](O)[C@@H](O)[C@@H]1O	> 20	> 20
CCCCCN(CCCCC)C(=O)C(CCC(=O)O)NC(=O)c1ccc(Cl)c(Cl)c1 (configuration not stated) [LORGLUMIDE]	> 20	> 20
Cc1nc(C(=O)N2CCCC[C@H]2CNC(=O)c2cccc3occc23)c(-c2ccc(F)cc2)s1 [SB-649868]	> 20	> 20
CC(C)(C)C(=O)NCCCC(=O)O [PIVAGABINE]	> 20	> 20
CC1(O)CCC2C3CCC4=CC(=O)CCC4C3CCC21C (configuration not stated)	> 20	> 20
C[C@H]1O[C@@H](Oc2c(-c3ccc(O)c(O)c3)oc3cc(O)cc(O)c3c2=O)[C@@H](O)[C@@H](O)[C@@H]1O	> 20	> 20
CCCCCCCC/C=C\CCCCCCCC(=O)O [OLEIC ACID]	> 20	> 20
CC(=O)[C@H]1CC[C@H]2[C@@H]3CCC4C[C@@H](O)CC[C@]4(C)[C@H]3CC[C@]12C (some centres not stated)	> 20	> 20
CCN(CC)CCSC(=O)N(c1ccccc1)c1ccccc1 [PHENCARBAMIDE]	> 20	> 20
O=C(O)CCCCO/N=C(/c1cccnc1)c1cccc(C(F)(F)F)c1 [RIDOGREL]	> 20	> 20
CC(C)NCC(O)c1ccc([N+](=O)O)cc1 (configuration not stated)	> 20	> 20
CCOCN1C2=C(C(=O)Nc3ccccc3F)C(=O)CCN2c2ccc(F)cc21	> 20	> 20
NC(Cc1ccc(Cl)cc1)C(=O)O (racemic) [FENCLONINE]	> 20	> 20
Cc1nnc(C(CCN2CC3CCC2CC3)(c2ccccc2)c2ccccc2)o1 [NUFENOXOLE]	> 20	> 20
COc1cc(O)c(C(=O)c2ccccc2)cc1S(=O)(=O)O [SULISOBENZONE]	> 20	> 20
O=C(O)c1cc(-c2ccccc2)nc2ccccc12 [CINCHOPHEN]	> 20	> 20
CCN(CC)C(=S)SSC(=S)N(CC)CC	> 20	> 20
CCC1(CC(=O)O)OCC(Cc2ccccc2)c2c1[nH]c1ccccc21 (configuration not stated) [PEMEDOLAC]	> 20	> 20
NC(=O)NNc1ccccc1 [PHENICARBAZIDE]	> 20	> 20
CN1C(=O)C(NC(=O)c2cc3ccccc3[nH]2)N=C(c2ccccc2)c2ccccc21 (configuration not stated)	> 20	> 20
Nc1c2ccccc2nc2ccccc12 [AMINACRINE]	> 20	> 20
Cn1cnc2[nH]c(=O)[nH]c(=O)c21 [7-METHYLXANTHINE]	> 20	> 20
CC(=O)N[C@H]1[C@H]([C@H](O)[C@H](O)CO)O[C@](O)(C(=O)O)C[C@@H]1O	> 50.1	> 50.1
CCOc1ccc(NC(C)=O)cc1 [PHENACETIN]	> 20	> 20

Compound	IC50 [µM]	IC50 (read-out: pIC50 (converted)) [µM]
Nc1nc(=O)n([C@@H]2C=C[C@H](CO)O2)cc1F [ELVUCITABINE]	> 20	> 20
CCOC(=O)/C=C/[C@H](C[C@@H]1CCNC1=O)NC(=O)[C@@H](CC(=O)[C@@H](NC(=O)c1cc(C)on1)C(C)C)Cc1ccc(F)cc1	> 25.1	> 25.1
CC(CC1c2ccccc2CCc2ccccc21)CN(C)C (configuration not stated) [BUTRIPTYLINE]	> 20	> 20
CC1(C)S[C@@H]2[C@H](NC(=O)[C@H](N)c3ccc(O)cc3)C(=O)N2[C@H]1C(=O)O [AMOXICILLIN]	> 20	> 20
CNC(CC(=O)O)C(=O)O (configuration not stated)	> 20	> 20
CC1=NC(=O)[C@](CCN(C(C)C)C(C)C)(c2ccccc2)[C@H]2CCCCN12	> 20	> 20
CC1(c2ccccc2)Cc2cc(OCC(=O)O)c(Cl)c(Cl)c2C1=O (configuration not stated) [INDACRINONE]	> 20	> 20
O=C(O)CCCC/C=C(/c1ccccc1)c1cccnc1 [ISBOGREL]	> 20	> 20
CC(C)OC(=O)CCC/C=C\C[C@@H]1[C@@H](CC[C@@H](O)CCc2ccccc2)[C@H](O)C[C@@H]1O [LATANOPROST]	> 20	> 20
CCOCCn1c(N2CCCN(C)CC2)nc2ccccc21 [EMEDASTINE]	> 20	> 20
CN(C)CCN(Cc1ccccc1)c1ccccc1	> 20	> 20
CC(CNC1CCCCC1)OC(=O)c1ccccc1 (configuration not stated) [HEXYLCAINE]	> 20	> 20
O=P(O)(O)OC(CO)CO [GLYCERYLPHOSPHATE]	> 20	> 20
C[C@@H]1CC(=O)NN=C1c1ccc2c(c1)OCC(=O)N2	> 20	> 20
c1cnc(N2CCN(Cc3ccc4c(c3)OCO4)CC2)nc1 [PIRIBEDIL]	> 20	> 20
CN1[C@@H]2CC[C@H]1CC(O)C2 (some centres not stated)	> 20	> 20
Nc1ccc(F)cc1NC(=O)c1ccc(CNC(=O)/C=C/c2cccnc2)cc1	> 20	> 20
C[C@H]1N=C(N)O[C@@H]1c1ccccc1	> 20	> 20
OC[C@@H](O)[C@H](O)[C@@H](O)CO [XYLITOL]	> 20	> 20
C[C@@H]1O[C@@H](O[C@H]2CC[C@]3(C=O)[C@H]4CC[C@]5(C)[C@@H](C6=CC(=O)OC6)CC[C@]5(O)[C@@H]4CC[C@]3(O)C2)[C@H](O)[C@H](O)[C@H]1O [CONVALLATOXIN]	> 20	> 20
C[C@]1(Cn2ccnn2)[C@H](C(=O)O)N2C(=O)C[C@H]2S1(=O)=O [TAZOBACTAM]	> 20	> 20
CN(C)CCn1nnnc1SCC1=C(C(=O)O)N2C(=O)[C@@H](NC(=O)Cc3csc(N)n3)[C@H]2SC1 [CEFOTIAM]	> 20	> 20
CCCC(=O)OC1(C(=O)CO)CCC2C3CCC4=CC(=O)CCC4(C)C3C(O)CC21C (configuration not stated)	> 20	> 20
Nc1nc2[nH]cc(CCc3ccc(C(=O)N[C@@H](CCC(=O)O)C(=O)O)cc3)c2c(=O)[nH]1 [PEMETREXED]	> 20	> 20
O=C1C=C2C=C[C@@H]3C[C@@]2(O1)[C@H]1CCCCN31 [SECURININE]	> 20	> 20
CSCC[C@H](NC(=O)[C@H](Cc1c[nH]c2ccccc12)NC(=O)CCNC(=O)OC(C)(C)C)C(=O)N[C@@H](CC(=O)O)C(=O)N[C@@H](Cc1ccccc1)C(N)=O [PENTAGASTRIN]	> 20	> 20

Compound	IC50 [µM]	IC50 (read-out: pIC50 (converted)) [µM]
CC(=O)OCC(=O)[C@@]1(O)CC[C@H]2[C@@H]3CCC4=CC(=O)CC[C@]4(C)[C@H]3C(=O)C[C@@]21C [CORTISONE ACETATE]	> 20	> 20
CCCCNC(=O)NS(=O)(=O)c1ccc(N)cc1 [CARBUTAMIDE]	> 20	> 20
N=C(N)NS(=O)(=O)c1ccc(N)cc1 [SULFAGUANIDINE]	> 20	> 20
C[n+]1cccc(C(=O)[O-])c1 [TRIGONELLINE]	> 20	> 20
CC1(C)CC2C1CCC1(C)OC2(C)CCC1O (configuration not stated) [3,7-EPOXYCARYOPHYLLAN-6-OL]	> 20	> 20
CC[C@@H](C)C(=O)O[C@H]1[C@H](O)[C@H]2[C@@H](CN3C[C@@H](C)CC[C@H]3[C@@]2(C)O)[C@@H]2C[C@]34O[C@@]5(O)[C@@H](OC(=O)[C@](C)(O)CC)CC[C@@]3(C)[C@@H]5[C@@H](OC(C)=O)[C@@H](OC(C)=O)[C@H]4[C@@]21O	> 20	> 20
CC1(C)CC(=O)N(CCCCN2CCN(c3ncccn3)CC2)C(=O)C1 [GEPIRONE]	> 20	> 20
CCOC(N)=O	> 20	> 20
Cc1ccc(-c2ncc(Cl)cc2-c2ccc(S(C)(=O)=O)cc2)cn1 [ETORICOXIB]	> 20	> 20
c1ccc2c(Cc3c[nH]c4ccccc34)c[nH]c2c1 [ARUNDINE]	> 20	> 20
CC(C)NCC(O)COc1ccc(COCCOC(C)C)cc1 (configuration not stated) [BISOPROLOL]	> 20	> 20
CC(C)(O/N=C(/C(=O)NC1C(=O)N2C(C(=O)O)=C(C[n+]3ccccc3)CSC12)c1csc(N)n1)C(=O)O (configuration not stated)	> 20	> 20
C[C@@H](CN1CC(=O)NC(=O)C1)N1CC(=O)NC(=O)C1 [DEXRAZOXANE]	> 20	> 20
C[C@H](N)C(=O)N[C@H](CCC(N)=O)C(=O)O (H-Ala-[dQ]-OH)	> 20	> 20
Cc1cnc(Nc2ccc(OCCN3CCCC3)cc2)nc1Nc1cccc(S(=O)(=O)NC(C)(C)C)c1 [FEDRATINIB]	> 20	> 20
CCOC(=O)Nc1ccc2c(c1)N(C(=O)CN(C)C)c1ccccc1CC2 [TIRACIZINE]	> 20	> 20
O=C(O)Cc1sc2nc3ccccc3n2c1-c1ccc(Cl)cc1 [TILOMISOLE]	> 20	> 20
O=C(O)CCCCC(CCSCc1ccccc1)SCc1ccccc1 (configuration not stated) [CPI 613]	> 20	> 20
COc1ccc2cc([C@@H](C)C(=O)O)ccc2c1	> 20	> 20
CCN(C)C(=O)Oc1cccc([C@H](C)N(C)C)c1 [RIVASTIGMINE]	> 20	> 20
C[C@]12CCC(=O)C=C1CC[C@@H]1[C@@H]2C(=O)C[C@]2(C)C(=O)CC[C@@H]12 [ADRENOTERONE]	> 20	> 20
O=c1[nH]cc(F)c(=O)[nH]1 [FLUOROURACIL]	> 20	> 20
Clc1cccc(N2CCNCC2)c1 [CHLOROPHENYLPIPERAZINE]	> 20	> 20
N=C(N)NCCCCNC(=N)N [ARCAINE]	> 20	> 20
